Assay results: the RepoRT retention time repository (doi:10.1021/acs.analchem.1c00972)

Columns and labels:
[1] = RP, Waters ACQUITY UPLC BEH C18, 100 × 1 mm, 1.7 µm, 50 °C, 0.3 mL/min, estimated dead time 0.17 min; A: water + 10 mM ammonium bicarbonate; B: 10% water + 90% methanol + 10 mM ammonium bicarbonate; gradient (min/%B) 0/0 15/100 21/100 22/0 30/0; conditions: stereoisomer not certain
[2] = RP, Waters ACQUITY UPLC BEH C18, 100 × 1 mm, 1.7 µm, 50 °C, 0.3 mL/min, estimated dead time 0.17 min; A: water + 0.1% formic acid + 20 mM ammonium formate; B: methanol + 0.1% formic acid + 20 mM ammonium formate; gradient (min/%B) 0/0 15/100 21/100 22/0 30/0; conditions: stereoisomer not certain

SMILES	LC retention time [1] [min]	LC retention time [2] [min]
Cc1cc(C)nc(NC(=O)NS(=O)(=O)c2ccccc2C(=O)OC2COC2)n1 [Oxasulfuron]	9.07	11.3
CCOC(=O)C(Cl)Cc1cc(-n2nc(C)n(C(F)F)c2=O)c(F)cc1Cl (configuration not stated) [Carfentrazone-ethyl]	15.8	15.4
N=c1nc(N)c(-c2cccc(Cl)c2Cl)nn1O [Lamotrigin-N2-Oxid]	9.15	9.42
CCN1CC2(COC)C(O)CC(OC)C34C5CC6(O)C(OC)C(O)C(OC(C)=O)(C5C6OC(=O)c5ccccc5)C(C(OC)C23)C14 (configuration not stated) [Aconitin]	15.7	12.1
COc1nc(C)nc(NC(=O)NS(=O)(=O)c2ccccc2Cl)n1 [Chlorsulfuron]	9.11	12.3
Clc1ccccc1-c1nnc(-c2ccccc2Cl)nn1 [Clofentezine (Apolo)]	16.3	15.9
CCCOP(=S)(OCCC)SCC(=O)N1CCCCC1C (configuration not stated) [Piperophos]	16.6	16.3
Cc1ncc2n1-c1ccc(Cl)cc1C(c1ccccc1F)=NC2 [Midazolam]	14.6	11.4
C#CC1(O)C=CC2C3CCC4=CC(=O)CCC4C3CCC21CC (configuration not stated) [Gestoden]	14.3	14
CCc1cccc(C)c1N [6-Ethyl-2-toluidine]	12.7	10.8
CCN(CC)c1nc(C)cc(OP(=S)(OC)OC)n1 [Pirimiphos-methyl]	16.3	15.8
COc1ncc(F)c2nc(S(=O)(=O)Nc3c(F)cccc3F)nn12 [Florasulam]	9	10.5
CNC1(c2ccccc2Cl)CCCCC1=O (configuration not stated) [Ketamine]	13.5	8.96
CC(=O)c1cc2c(cc1C)C(C)(C)C(C)C2(C)C (configuration not stated) [Phantolide]	17.9	17.5
Cc1cccc(Cl)c1NC(=O)N(C)C [3-(2-CHLORO-6-METHYLPHENYL)-1,1-DIMETHYLUREA]	10.1	10
CN(C)C(=O)C(CCN1CCC(O)(c2ccc(Cl)cc2)CC1)(c1ccccc1)c1ccccc1 [Loperamide]	16.3	13.7
CC(=O)CCCCn1c(=O)c2c(ncn2C)n(C)c1=O [Pentoxifylline]	9.98	9.87
O=c1[nH]c2ccccc2n1CCCN1CCC(n2c(=O)[nH]c3cc(Cl)ccc32)CC1 [Domperidone]	14.8	10.7
C=C1CCC2C(C=C(C)C(=O)C3(O)CC(C)C(O)C3C1O)C2(C)C (configuration not stated) [Lathyrol]	15	14.7
CCOP(=S)(OCC)Oc1ccc(=O)n(-c2ccccc2)n1 [Pyridaphenthion]	14.8	14.6
CCOC(=O)CCN(Cc1ccccc1)SN(C)C(=O)ON=C(C)SC [Alanycarb]	15.8	15.5
c1ccc2sc(SN3CCOCC3)nc2c1 [2-Morpholinothiobenzothiazole]	10	12.1
CNc1cnn(-c2cccc(C(F)(F)F)c2)c(=O)c1Cl [Norflurazon]	13.5	13.3
COP(=O)(OC)OC(Br)C(Cl)(Cl)Br (configuration not stated) [Naled]	13.6	13.3
CCOP(=O)(SC(C)CC)N1CCSC1=O (configuration not stated) [Fosthiazate]	12.8	12.6
COc1cc(C)c(C(=O)c2c(OC)ccc(Br)c2C)c(OC)c1OC [Metrafenone]	16.4	16
CCC(C)(CC)c1cc(NC(=O)c2c(OC)cccc2OC)on1 [Isoxaben]	14.6	14.4

Next, values leading:

LC retention time [1] [min]	LC retention time [2] [min]	SMILES
15.9	15.5	CC(=O)C1CCC2C3CCC4=CC(=O)CCC4(C)C3CCC12C (configuration not stated) [Progesterone]
15.1	14.8	CCCC1OC2CC3C4CCC5=CC(=O)C=CC5(C)C4C(O)CC3(C)C2(C(=O)CO)O1 (configuration not stated) [Budesonide]
13.5	13.2	CC1CC2C3CCC4=CC(=O)C=CC4(C)C3(F)C(O)CC2(C)C1(O)C(=O)CO (configuration not stated) [Dexamethasone]
19.3	18.8	CCC(C)C1OC2(CCC1C)CC1CC(CC=C(C)C(OC3CC(OC)C(OC4CC(OC)C(O)C(C)O4)C(C)O3)C(C)C=CC=C3COC4C(O)C(C)=CC(C(=O)O1)C34O)O2 (configuration not stated) [Ivermectin B1a]
20.7	11.1	COC(=O)c1ccc(C(=O)OC)cc1 [Dimethyl terephthalate]
13.9	17.2	c1ccc2sc(SSc3nc4ccccc4s3)nc2c1 [2,2-Dibenzothiazoyl disulfide]
11.2	11	CC(=O)Nc1cc(Cl)ccc1C [5'-CHLORO-2'-METHYLACETANILIDE]
20.1	16.7	CCCCc1oc2ccccc2c1C(=O)c1cc(I)c(OCCN(CC)CC)c(I)c1 [Amiodarone]
12.3	9.73	COc1cc2nc(N(C)CCCNC(=O)C3CCCO3)nc(N)c2cc1OC (configuration not stated) [Alfuzosin]
9.61	9.43	CC(=O)OC1C(C)OC(n2cc(F)c(N)nc2=O)C1OC(C)=O (configuration not stated) [2',3'-Di-O-acetyl-5'-deoxy-5-fluorocytidine]
6.03	6.39	O=S(=O)(O)ON=C(Cc1c[nH]c2ccccc12)SC1OC(CO)C(O)C(O)C1O (configuration not stated) [Glucobrassicin]
10.1	10	CC12C=CC(=O)C=C1CCC1C3CC(O)C(O)(C(=O)CO)C3(C)CC(O)C12F (configuration not stated) [Triamcinolone]
14.6	9.9	Cc1cccc2n[nH]nc12 [Tolyltriazole]
15.3	15	COc1ccc(C(=O)c2ccccc2)c(O)c1 [Benzophenone-3]
13.8	13.6	CC1(C)OC2CC3C4CC(F)C5=CC(=O)C=CC5(C)C4C(O)CC3(C)C2(C(=O)CO)O1 (configuration not stated) [Flunisolide]
6.65	8.94	CN(Cc1nc2c(N)nc(N)nc2[nH]c1=O)c1ccc(C(=O)NC(CCC(=O)O)C(=O)O)cc1 (configuration not stated) [7-Hydroxymethotrexat]
14.6	14.3	CCOC(=O)c1ccc(N(C)C)cc1 [Ethyl-4-dimethylaminobenzoate]

LC retention time [1] [min]	LC retention time [2] [min]	SMILES
12.2	11.7	CCOC(=O)C(CCc1ccccc1)NC(C)C(=O)N1CCCC1C(=O)O (configuration not stated) [Enalapril]
14.3	14	CSc1nc2ccccc2s1 [2-(Methylthio)benzothiazole]
18.3	17.9	CCC(C)C1OC2(C=CC1C)CC1CC(CC=C(C)C(OC3CC(OC)C(OC4CC(OC)C(NC(C)=O)C(C)O4)C(C)O3)C(C)C=CC=C3COC4C(O)C(C)=CC(C(=O)O1)C34O)O2 (configuration not stated) [Eprinomectin B1a]
9.71	9.52	COc1ccccc1OCC(O)COC(N)=O (configuration not stated) [Methocarbamol]
7.16	5.17	CC(C)C(N)C(=O)OCC(CO)OCn1cnc2c(=O)[nH]c(N)nc21 (configuration not stated) [Valganciclovir]
14.2	13.9	C#CC1(O)CCC2C3CCC4=CC(=O)CCC4C3CCC21C (configuration not stated) [Norethindrone]
10.6	10.9	CCCc1nc(C(C)(C)O)c(C(=O)O)n1Cc1ccc(-c2ccccc2-c2nn[nH]n2)cc1 [Olmesartan]
6.58	8.38	Cn1cnc2c1c(=O)n(CCCC(=O)O)c(=O)n2C [1-(3-carboxypropyl)-3,7-dimethylxanthine]
14.4	14.1	CC1CC2C3CCC4=CC(=O)C=CC4(C)C3(F)C(O)CC2(C)C1(O)C(=O)CCl (configuration not stated) [Clobetasol]
8.6	7.04	CNC(CC(C)C)C(=O)NC1C(=O)NC(CC(N)=O)C(=O)NC2C(=O)NC3C(=O)NC(C(=O)NC(C(=O)O)c4cc(O)cc(O)c4-c4cc3ccc4O)C(O)c3ccc(c(Cl)c3)Oc3cc2cc(c3OC2OC(CO)C(O)C(O)C2OC2CC(C)(N)C(O)C(C)O2)Oc2ccc(cc2Cl)C1O (configuration not stated) [Vancomycin]
9.11	4.33	OC1C=C2CCN3Cc4cc5c(cc4C(C1O)C23)OCO5 (configuration not stated) [Lycorine]
13.8	8.85	CCCNC(C)C(=O)Nc1ccccc1C (configuration not stated) [Prilocaine]
13.3	11.1	CCc1ccc(CCOc2ccc(CC3SC(=O)NC3=O)cc2)nc1 (configuration not stated) [Pioglitazone]
14.8	12.2	CCCc1nc(C)c2c(=O)[nH]c(-c3cc(S(=O)(=O)N4CCN(CC)CC4)ccc3OCC)nn12 [Vardenafil]
14.4	16.7	Cc1c(Cl)cccc1Nc1ccccc1C(=O)O [Tolfenamics<e4>ure]
2.61	6	Nc1ccc(S(=O)(=O)Nc2ncccn2)cc1 [Sulfadiazin]
14.8	13.6	O=C(O)COCCN1CCN(C(c2ccccc2)c2ccc(Cl)cc2)CC1 (configuration not stated) [Cetirizine]
